Laboratory results published in US20240384350A1, “METHODS OF TREATING CANCER WITH KINASE INHIBITORS” (BOARD OF REGENTS, THE UNIVERSITY OF TEXAS SYSTEM, priority 2021, published 2024).
One block for each compound: values may come before it.

Legend:
Assay in all cases: Ba/F3 drug screening, Cell Titer Glo, IC50 Mut/WT
Format in all cases: cell-based
[1] = target: T1, EGFR L858R T790M V843I (Homo sapiens, UniProt P00533, L858R/T790M/V843I); details: T790M-like-3S, 72 hours
T1 construct: expressed in transfected cells; host or cells: Ba/F3
Procedure: Data represent the ratio of the IC50 value for a given TKI for cells with a T790M-like-3S EGFR mutation to the IC50 value for cells with wildtype EGFR.
(§1) Ba/F3 cell generation, drug screening, and IC50 approximations. Ba/F3 cells were obtained as a gift from Dr. Gordon Mills (MD Anderson Cancer Center), and maintained in RPMI (Sigma) containing 10% FBS, 1% penicillin/streptomycin, and 10 ng/ml recombinant mIL-3 (R&D Biosystems). To establish stable Ba/F3 cell lines, Ba/F3 cells were transduced with retroviruses containing mutant EGFR plasmids for 12-24 hours.
(§2) After 48-72 hours of transduction, 2 μg/ml puromycin (Invitrogen) was added to Ba/F3 cell lines in complete RPMI. To select for EGFR positive cell lines, cells were stained with PE-EGFR (Biolegend) and sorted by FACS. After sorting, EGFR positive cells were maintained in RPMI containing 10% FBS, 1% penicillin/streptomycin, and 1 ng/ml EGF to support cell viability. Drug screening was performed as previously described^41,42. Shortly, cells were plated in 384-well plates (Greiner Bio-One) at 2000-3000 cells per well in technical triplicate. Seven different concentrations of TKIs or DMSO vehicle were added to reach a final volume of 40 μL per well. After 72 hours, 11 μL of Cell Titer Glo (Promega) was added to each well. Plates were incubated for a minimum of 10 minutes, and bioluminescence was determined using a FLUOstar OPTIMA plate reader (BMG LABTECH). Raw bioluminescence values were normalized to DMSO control treated cells, and values were plotted in GraphPad Prism. […] Drug screens were performed in technical triplicate on each plate and either duplicate or triplicate biological replicates.

[2] = target: T2, EGFR L718Q (Homo sapiens, UniProt P00533, L718Q)
T2 construct: expressed in transfected cells; host or cells: Ba/F3

[3] = target: T3, EGFR S768dupSVD V769M (Homo sapiens, UniProt P00533, INS768MDS/V769M); details: Ex20, 72 hours
T3 construct: expressed in transfected cells; host or cells: Ba/F3 cells, retroviral pBabe-Puro vector (vector made by GeneScript from EGFR S768dupSVD, c.2305G > A)

[4] = target: T4, EGFR L858R/L792H (Homo sapiens, UniProt P00533, L792H/L858R)
T4 construct: expressed in transfected cells; host or cells: Ba/F3
Procedure: (§3) Data represent the ratio of the IC50 value for a given TKI for cells with a PACC EGFR mutation to the IC50 value for cells with wildtype EGFR.
as §1, §2

[5] = target: T5, EGFR Ex19del (Homo sapiens, UniProt P00533, DEL746-750); details: Classical-Like, 72 hours
T5 construct: expressed in transfected cells; host or cells: Ba/F3 cells, retroviral pBabe-Puro vector
Procedure: (§4) Data represent the ratio of the IC50 value for a given TKI for cells with a classical-like EGFR mutation to the IC50 value for cells with wildtype EGFR.
as §1
(§5) After 48-72 hours of transduction, 2 μg/ml puromycin (Invitrogen) was added to Ba/F3 cell lines in complete RPMI. To select for EGFR positive cell lines, cells were stained with PE-EGFR (Biolegend) and sorted by FACS. After sorting, EGFR positive cells were maintained in RPMI containing 10% FBS, 1% penicillin/streptomycin, and 1 ng/ml EGF to support cell viability. […] Shortly, cells were plated in 384-well plates (Greiner Bio-One) at 2000-3000 cells per well in technical triplicate. Seven different concentrations of TKIs or DMSO vehicle were added to reach a final volume of 40 μL per well. After 72 hours, 11 μL of Cell Titer Glo (Promega) was added to each well. Plates were incubated for a minimum of 10 minutes, and bioluminescence was determined using a FLUOstar OPTIMA plate reader (BMG LABTECH). Raw bioluminescence values were normalized to DMSO control treated cells, and values were plotted in GraphPad Prism. […] Drug screens were performed in technical triplicate on each plate and either duplicate or triplicate biological replicates.

[6] = target: T6, EGFR E709K (Homo sapiens, UniProt P00533, E709K)
T6 construct: expressed in transfected cells; host or cells: Ba/F3

[7] = target: T7, EGFR L858R T790M L718V (Homo sapiens, UniProt P00533, L718V/L858R/T790M); details: T790M-like-3R, 72 hours
T7 construct: expressed in transfected cells; host or cells: Ba/F3
Procedure: Data represent the ratio of the IC50 value for a given TKI for cells with a T790M-like-3R EGFR mutation to the IC50 value for cells with wildtype EGFR.
as §1
After 48-72 hours of transduction, 2 μg/ml puromycin (Invitrogen) was added to Ba/F3 cell lines in complete RPMI. To select for EGFR positive cell lines, cells were stained with PE-EGFR (Biolegend) and sorted by FACS. After sorting, EGFR positive cells were maintained in RPMI containing 10% FBS, 1% penicillin/streptomycin, and 1 ng/ml EGF to support cell viability. […] Shortly, cells were plated in 384-well plates (Greiner Bio-One) at 2000-3000 cells per well in technical triplicate. Seven different concentrations of TKIs or DMSO vehicle were added to reach a final volume of 40 μL per well. After 72 hours, 11 μL of Cell Titer Glo (Promega) was added to each well. Plates were incubated for a minimum of 10 minutes, and bioluminescence was determined using a FLUOstar OPTIMA plate reader (BMG LABTECH). Raw bioluminescence values were normalized to DMSO control treated cells, and values were plotted in GraphPad Prism. […] Drug screens were performed in technical triplicate on each plate and either duplicate or triplicate biological replicates. […] Statistical differences between groups were determined by ANOVA as described in the figure legends.

[8] = target: T8, EGFR K754E (Homo sapiens, UniProt P00533, K754E); details: Classical-Like, 72 hours
T8 construct: expressed in transfected cells; host or cells: Ba/F3 cells, retroviral pBabe-Puro vector

[9] = target: T9, EGFR L858R G724S (Homo sapiens, UniProt P00533, G724S/L858R)
T9 construct: expressed in transfected cells; host or cells: Ba/F3 (retroviral transduction, pBabe-Puro based vectors)
Procedure: as §3, §1, §2

[10] = target: T10, EGFR G719A (Homo sapiens, UniProt P00533, G719A)
T10 construct: expressed in transfected cells; host or cells: Ba/F3

[11] = target: T11, EGFR E709_T710del insD (Homo sapiens, UniProt P00533, DEL709-709/T710D)
T11 construct: expressed in transfected cells; host or cells: Ba/F3
Procedure: as §3, §1, §2

[12] = target: T12, EGFR G724S T790M (Homo sapiens, UniProt P00533, G724S/T790M); details: T790M-like-3R, 72 hours
T12 construct: expressed in transfected cells; host or cells: Ba/F3

[13] = target: T13, EGFR Ex19del/L792H (Homo sapiens, UniProt P00533, DEL746-750/L792H)
T13 construct: expressed in transfected cells; host or cells: Ba/F3
Procedure: as §3, §1, §2

[14] = target: T14, EGFR G719S (Homo sapiens, UniProt P00533, G719S)
T14 construct: expressed in transfected cells; host or cells: Ba/F3
Procedure: as §3, §1, §2

[15] = target: T15, EGFR E709K G719S (Homo sapiens, UniProt P00533, E709K/G719S)
T15 construct: expressed in transfected cells; host or cells: Ba/F3

[16] = target: T16, EGFR G719A L861Q (Homo sapiens, UniProt P00533, G719A/L861Q)
T16 construct: expressed in transfected cells; host or cells: Ba/F3

[17] = target: T17, EGFR L858R/C797S (Homo sapiens, UniProt P00533, C797S/L858R)
T17 construct: expressed in transfected cells; host or cells: Ba/F3

[18] = target: T18, EGFR G719A/R776C (Homo sapiens, UniProt P00533, G719A/R776C)
T18 construct: expressed in transfected cells; host or cells: Ba/F3

[19] = target: T19, EGFR A763insLQEA (Homo sapiens, UniProt P00533, INS763LQEA); details: Classical-Like, 72 hours
T19 construct: expressed in transfected cells; host or cells: Ba/F3 cells, retroviral pBabe-Puro vector
Procedure: as §4, §1, §5

[20] = target: T20, EGFR L833V (Homo sapiens, UniProt P00533, L833V); details: Classical-Like, 72 hours
T20 construct: expressed in transfected cells; host or cells: Ba/F3 cells, retroviral pBabe-Puro vector
Procedure: as §4, §1, §5

[21] = target: T21, EGFR D761N (Homo sapiens, UniProt P00533, D761N); details: Classical-Like, 72 hours
T21 construct: expressed in transfected cells; host or cells: Ba/F3 cells, retroviral pBabe-Puro vector
Procedure: as §4, §1, §5

[22] = target: T22, EGFR K757R (Homo sapiens, UniProt P00533, K757R)
T22 construct: expressed in transfected cells; host or cells: Ba/F3
Procedure: as §3, §1
After 48-72 hours of transduction, 2 μg/ml puromycin (Invitrogen) was added to Ba/F3 cell lines in complete RPMI. To select for EGFR positive cell lines, cells were stained with PE-EGFR (Biolegend) and sorted by FACS. After sorting, EGFR positive cells were maintained in RPMI containing 10% FBS, 1% penicillin/streptomycin, and 1 ng/ml EGF to support cell viability. Drug screening was performed as previously described^41,42. Shortly, cells were plated in 384-well plates (Greiner Bio-One) at 2000-3000 cells per well in technical triplicate. Seven different concentrations of TKIs or DMSO vehicle were added to reach a final volume of 40 μL per well. After 72 hours, 11 μL of Cell Titer Glo (Promega) was added to each well. Plates were incubated for a minimum of 10 minutes, and bioluminescence was determined using a FLUOstar OPTIMA plate reader (BMG LABTECH). Raw bioluminescence values were normalized to DMSO control treated cells, and values were plotted in GraphPad Prism. […] Drug screens were performed in technical triplicate on each plate and either duplicate or triplicate biological replicates. […] Statistical differences between groups were determined by ANOVA as described in the figure legends.

[23] = target: T23, EGFR L718V (Homo sapiens, UniProt P00533, L718V)
T23 construct: expressed in transfected cells; host or cells: Ba/F3
Procedure: as §3, §1, §2

Structure (SMILES): CNC(=O)CN1CCC(Oc2cc3c(Nc4cccc(Cl)c4F)ncnc3cc2OC)CC1 [Sapatinib]
ratio of IC50 for cells with mutant EGFR to IC50 for cells with wildtype EGFR (Mut/WT) [1]: 49
ratio of IC50 for cells with mutant EGFR to IC50 for cells with wildtype EGFR (Mut/WT) ([2]; PACC, L718Q, Ba/F3, 72 hours): 2.03
ratio of IC50 for cells with mutant EGFR to IC50 for cells with wildtype EGFR (Mut/WT) [3]: 1.596
ratio of IC50 for cells with mutant EGFR to IC50 for cells with wildtype EGFR (Mut/WT) ([4]; PACC, L858R/L792H, Ba/F3, 72 hours): 0.01237
ratio of IC50 for cells with mutant EGFR to IC50 for cells with wildtype EGFR (Mut/WT) [5]: 0.0005535
ratio of IC50 for cells with mutant EGFR to IC50 for cells with wildtype EGFR (Mut/WT) ([6]; PACC, E709K, Ba/F3, 72 hours): 0.1216
ratio of IC50 for cells with mutant EGFR to IC50 for cells with wildtype EGFR (Mut/WT) [7]: 41.48
ratio of IC50 for cells with mutant EGFR to IC50 for cells with wildtype EGFR (Mut/WT) [8]: 0.00307
ratio of IC50 for cells with mutant EGFR to IC50 for cells with wildtype EGFR (Mut/WT) ([9]; PACC, L858R G724S, Ba/F3, 72 hours): 0.0004959
ratio of IC50 for cells with mutant EGFR to IC50 for cells with wildtype EGFR (Mut/WT) ([10]; PACC, G719A, Ba/F3, 72 hours): 0.01264
ratio of IC50 for cells with mutant EGFR to IC50 for cells with wildtype EGFR (Mut/WT) ([11]; PACC, E709_T710del insD, Ba/F3, 72 hours): 1.754
ratio of IC50 for cells with mutant EGFR to IC50 for cells with wildtype EGFR (Mut/WT) [12]: 48.62
ratio of IC50 for cells with mutant EGFR to IC50 for cells with wildtype EGFR (Mut/WT) ([13]; PACC, Ex19del/L792H, Ba/F3, 72 hours): 53.47
ratio of IC50 for cells with mutant EGFR to IC50 for cells with wildtype EGFR (Mut/WT) ([14]; PACC, G719S, Ba/F3, 72 hours): 0.1998
ratio of IC50 for cells with mutant EGFR to IC50 for cells with wildtype EGFR (Mut/WT) ([15]; PACC, E709K G719S, Ba/F3, 72 hours): 0.01102
ratio of IC50 for cells with mutant EGFR to IC50 for cells with wildtype EGFR (Mut/WT) ([16]; PACC, G719A L861Q, Ba/F3, 72 hours): 0.04615
ratio of IC50 for cells with mutant EGFR to IC50 for cells with wildtype EGFR (Mut/WT) ([17]; PACC, L858R/C797S, Ba/F3, 72 hours): 0.001101
ratio of IC50 for cells with mutant EGFR to IC50 for cells with wildtype EGFR (Mut/WT) ([18]; PACC, G719A/R776C, Ba/F3, 72 hours): 0.0489
ratio of IC50 for cells with mutant EGFR to IC50 for cells with wildtype EGFR (Mut/WT) [19]: 0.004226
ratio of IC50 for cells with mutant EGFR to IC50 for cells with wildtype EGFR (Mut/WT) [20]: 0.008594
ratio of IC50 for cells with mutant EGFR to IC50 for cells with wildtype EGFR (Mut/WT) [21]: 0.001814
ratio of IC50 for cells with mutant EGFR to IC50 for cells with wildtype EGFR (Mut/WT) ([22]; PACC, K757R, Ba/F3, 72 hours): 0.3144
ratio of IC50 for cells with mutant EGFR to IC50 for cells with wildtype EGFR (Mut/WT) ([23]; PACC, L718V, Ba/F3, 72 hours): 1.264

ratio of IC50 for cells with mutant EGFR to IC50 for cells with wildtype EGFR (Mut/WT) [1]: 1.649
ratio of the IC50 value for cells with a PACC EGFR mutation to the IC50 value for cells with wildtype EGFR ([2]; Ba/F3 cells, EGFR L718Q (PACC), Mut/WT): 16.38
ratio of IC50 for cells with mutant EGFR to IC50 for cells with wildtype EGFR (Mut/WT) [3]: 0.5446
ratio of the IC50 value for cells with a PACC EGFR mutation to the IC50 value for cells with wildtype EGFR ([4]; Ba/F3 cells, EGFR L858R/L792H (PACC), Mut/WT): 0.0457
ratio of IC50 for cells with mutant EGFR to IC50 for cells with wildtype EGFR (Mut/WT) [5]: 0.02859
ratio of the IC50 value for cells with a PACC EGFR mutation to the IC50 value for cells with wildtype EGFR ([6]; Ba/F3 cells, EGFR E709K (PACC), Mut/WT): 10.68
ratio of IC50 for cells with mutant EGFR to IC50 for cells with wildtype EGFR (Mut/WT) [7]: 5.796
ratio of IC50 for cells with mutant EGFR to IC50 for cells with wildtype EGFR (Mut/WT) [8]: 0.1738
ratio of the IC50 value for cells with a PACC EGFR mutation to the IC50 value for cells with wildtype EGFR ([9]; Ba/F3 cells, EGFR L858R G724S (PACC), Mut/WT): 0.01089
ratio of the IC50 value for cells with a PACC EGFR mutation to the IC50 value for cells with wildtype EGFR ([10]; Ba/F3 cells, EGFR G719A (PACC), Mut/WT): 1.676
ratio of the IC50 value for cells with a PACC EGFR mutation to the IC50 value for cells with wildtype EGFR ([11]; Ba/F3 cells, EGFR E709_T710del insD (PACC), Mut/WT): 0.0198
ratio of IC50 for cells with mutant EGFR to IC50 for cells with wildtype EGFR (Mut/WT) [12]: 48.31
ratio of the IC50 value for cells with a PACC EGFR mutation to the IC50 value for cells with wildtype EGFR ([13]; Ba/F3 cells, EGFR Ex19del/L792H (PACC), Mut/WT): 6.547
ratio of the IC50 value for cells with a PACC EGFR mutation to the IC50 value for cells with wildtype EGFR ([14]; Ba/F3 cells, EGFR G719S (PACC), Mut/WT): 2.056
ratio of the IC50 value for cells with a PACC EGFR mutation to the IC50 value for cells with wildtype EGFR ([15]; Ba/F3 cells, EGFR E709K G719S (PACC), Mut/WT): 2.046
ratio of the IC50 value for cells with a PACC EGFR mutation to the IC50 value for cells with wildtype EGFR ([16]; Ba/F3 cells, EGFR G719A L861Q (PACC), Mut/WT): 1.066
ratio of the IC50 value for cells with a PACC EGFR mutation to the IC50 value for cells with wildtype EGFR ([17]; Ba/F3 cells, EGFR L858R/C797S (PACC), Mut/WT): 57.42
ratio of the IC50 value for cells with a PACC EGFR mutation to the IC50 value for cells with wildtype EGFR ([18]; Ba/F3 cells, EGFR G719A/R776C (PACC), Mut/WT): 0.8144
ratio of IC50 for cells with mutant EGFR to IC50 for cells with wildtype EGFR (Mut/WT) [19]: 0.03374
ratio of IC50 for cells with mutant EGFR to IC50 for cells with wildtype EGFR (Mut/WT) [20]: 0.1367
ratio of IC50 for cells with mutant EGFR to IC50 for cells with wildtype EGFR (Mut/WT) [21]: 0.363
ratio of the IC50 value for cells with a PACC EGFR mutation to the IC50 value for cells with wildtype EGFR ([22]; Ba/F3 cells, EGFR K757R (PACC), Mut/WT): 1.563
ratio of the IC50 value for cells with a PACC EGFR mutation to the IC50 value for cells with wildtype EGFR ([23]; Ba/F3 cells, EGFR L718V (PACC), Mut/WT): 39.29
Structure (SMILES): C=CC(=O)Nc1cc(Nc2ncc(C(=O)OC(C)C)c(-c3cn(C)c4ccccc34)n2)c(OC)cc1N(C)CCN(C)C [TAK-788 (mobocertinib), mobocertinib]
